Measurements as given in ChEMBL document CHEMBL1201862, “PubChem BioAssay data set” (2004).
The source made the active and inactive calls.

Key:
HeLa = experiment: ATP-based viability loss in HeLa cells – cell-based, CellTiter-Glo luminescence, cherry-pick samples, cytotoxicity control for MITF activator project, dose response (AID 540259); format: functional; details: Homo sapiens
[1] = molecular target: Heat shock protein HSP 90-alpha (Homo sapiens, UniProt P07900); format: functional, organism-based
Exodeoxyribonuclease V = molecular target: T1, Exodeoxyribonuclease V (Escherichia coli (strain K12), UniProt P04993+P07648+P08394); experiment: RecBCD inhibition via phage-restricted bacterial growth – absorbance, V66 E. coli, mutant T4 phage, counter-screen for AddAB inhibitor project, dose response (AID 492957); format: functional, cell-based, Escherichia coli str. K-12 substr. MG1655
T1 sequence (P04993 whole entry): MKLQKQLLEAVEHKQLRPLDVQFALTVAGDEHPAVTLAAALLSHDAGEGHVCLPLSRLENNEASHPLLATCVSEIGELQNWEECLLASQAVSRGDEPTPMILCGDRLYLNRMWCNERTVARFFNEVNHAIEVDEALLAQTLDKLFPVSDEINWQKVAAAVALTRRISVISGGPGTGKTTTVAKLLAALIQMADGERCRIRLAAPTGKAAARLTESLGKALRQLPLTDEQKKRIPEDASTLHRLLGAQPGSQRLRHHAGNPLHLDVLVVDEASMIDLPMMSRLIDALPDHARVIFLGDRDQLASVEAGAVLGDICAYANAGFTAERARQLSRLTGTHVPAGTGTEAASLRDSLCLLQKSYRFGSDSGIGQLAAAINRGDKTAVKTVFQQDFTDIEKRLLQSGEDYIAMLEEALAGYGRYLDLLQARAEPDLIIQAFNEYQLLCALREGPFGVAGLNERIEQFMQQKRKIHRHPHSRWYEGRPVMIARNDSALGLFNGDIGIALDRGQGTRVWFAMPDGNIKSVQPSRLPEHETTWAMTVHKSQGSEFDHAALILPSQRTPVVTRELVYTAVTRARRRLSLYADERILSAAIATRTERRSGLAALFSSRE
T1 sequence (P07648 whole entry): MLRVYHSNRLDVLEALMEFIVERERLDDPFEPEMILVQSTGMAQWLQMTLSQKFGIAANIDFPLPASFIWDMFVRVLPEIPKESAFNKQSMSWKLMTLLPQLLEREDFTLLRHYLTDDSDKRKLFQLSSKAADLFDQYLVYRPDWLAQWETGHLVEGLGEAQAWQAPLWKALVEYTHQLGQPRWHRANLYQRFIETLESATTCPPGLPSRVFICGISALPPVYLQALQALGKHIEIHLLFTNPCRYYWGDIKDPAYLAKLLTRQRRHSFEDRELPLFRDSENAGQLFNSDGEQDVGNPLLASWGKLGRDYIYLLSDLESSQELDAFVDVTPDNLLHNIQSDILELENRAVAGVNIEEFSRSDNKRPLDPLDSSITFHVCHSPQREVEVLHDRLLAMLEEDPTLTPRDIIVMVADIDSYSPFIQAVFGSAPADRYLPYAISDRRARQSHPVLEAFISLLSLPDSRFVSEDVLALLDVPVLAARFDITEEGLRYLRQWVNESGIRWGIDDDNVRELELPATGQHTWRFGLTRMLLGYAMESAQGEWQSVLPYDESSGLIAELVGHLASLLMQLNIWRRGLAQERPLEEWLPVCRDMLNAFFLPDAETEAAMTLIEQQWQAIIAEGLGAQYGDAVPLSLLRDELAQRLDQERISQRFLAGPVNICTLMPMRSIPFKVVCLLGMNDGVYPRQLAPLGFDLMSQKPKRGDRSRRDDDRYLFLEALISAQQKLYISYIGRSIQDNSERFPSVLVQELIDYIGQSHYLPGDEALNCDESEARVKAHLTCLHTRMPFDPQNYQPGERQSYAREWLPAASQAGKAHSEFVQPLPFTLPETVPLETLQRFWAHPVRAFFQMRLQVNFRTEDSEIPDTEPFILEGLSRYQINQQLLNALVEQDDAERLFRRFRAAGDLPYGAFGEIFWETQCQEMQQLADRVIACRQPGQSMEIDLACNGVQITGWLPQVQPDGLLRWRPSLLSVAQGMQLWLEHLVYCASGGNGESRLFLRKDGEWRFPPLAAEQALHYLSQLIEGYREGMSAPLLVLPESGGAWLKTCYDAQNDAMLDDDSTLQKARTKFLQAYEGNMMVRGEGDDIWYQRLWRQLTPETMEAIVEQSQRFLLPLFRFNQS
T1 sequence (P08394 whole entry): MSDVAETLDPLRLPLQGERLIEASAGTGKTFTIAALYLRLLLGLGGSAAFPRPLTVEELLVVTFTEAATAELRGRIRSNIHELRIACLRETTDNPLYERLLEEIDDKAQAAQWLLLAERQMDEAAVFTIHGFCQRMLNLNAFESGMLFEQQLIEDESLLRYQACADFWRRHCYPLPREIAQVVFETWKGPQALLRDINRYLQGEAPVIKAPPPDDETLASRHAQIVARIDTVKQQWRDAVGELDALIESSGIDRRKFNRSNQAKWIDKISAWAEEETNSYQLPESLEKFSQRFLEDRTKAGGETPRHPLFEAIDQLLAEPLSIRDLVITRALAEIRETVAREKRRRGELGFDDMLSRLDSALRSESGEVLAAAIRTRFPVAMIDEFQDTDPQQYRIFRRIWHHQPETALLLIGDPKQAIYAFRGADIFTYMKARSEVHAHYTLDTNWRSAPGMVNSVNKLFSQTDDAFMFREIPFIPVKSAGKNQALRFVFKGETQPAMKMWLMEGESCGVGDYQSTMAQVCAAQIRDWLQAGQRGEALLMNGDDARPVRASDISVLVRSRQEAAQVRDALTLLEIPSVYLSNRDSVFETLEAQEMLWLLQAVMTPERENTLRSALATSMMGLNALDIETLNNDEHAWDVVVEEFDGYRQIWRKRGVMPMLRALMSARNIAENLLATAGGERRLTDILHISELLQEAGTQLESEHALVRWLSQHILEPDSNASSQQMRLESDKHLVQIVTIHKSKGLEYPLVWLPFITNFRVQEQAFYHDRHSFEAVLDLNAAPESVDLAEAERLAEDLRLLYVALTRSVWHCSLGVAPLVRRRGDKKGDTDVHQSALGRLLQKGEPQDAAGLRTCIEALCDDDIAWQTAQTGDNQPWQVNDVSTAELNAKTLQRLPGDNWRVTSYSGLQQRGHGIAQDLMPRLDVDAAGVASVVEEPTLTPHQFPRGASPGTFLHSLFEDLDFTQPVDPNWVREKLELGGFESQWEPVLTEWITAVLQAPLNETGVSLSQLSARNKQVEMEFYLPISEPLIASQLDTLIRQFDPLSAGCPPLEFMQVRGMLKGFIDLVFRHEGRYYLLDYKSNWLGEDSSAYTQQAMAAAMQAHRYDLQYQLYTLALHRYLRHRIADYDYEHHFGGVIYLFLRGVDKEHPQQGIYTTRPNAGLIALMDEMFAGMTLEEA

cells [2] = format: functional, cell-based
[3] = loss of viability in HepG2 cells – cell-based, CellTiter-Glo, cherry-picked, cytotoxicity control for Shn3 inhibitor project, dose response (AID 624134); format: functional
cells [4] = format: functional, cell-based; remark: listed apart in the source
HEK293 [5] = experiment: EBV LMP1 TES2 canonical NF-kB signalling blockers – cell-based, HEK293, luciferase, cherry-pick, dose response (AID 588343); format: functional; details: Homo sapiens
[6] = Counterscreen for AddAB inhibitors: absorbance-based bacterial cell-based high throughput dose response assay for inhibitors of bacterial viability. [Related pubchem assays (depositor defined):AID435030, AID449728, AID449731, AID488942, AID488955, AID488956]; format: functional
[7] = non-specific 3'UTR reporter inhibition in Clone20-Shn3RL – cell-based, Renilla luciferase, cherry-picked, counter-screen for Shn3 inhibitor project, dose response (AID 624133); format: functional
[8] = reduction of Shn3 3'UTR-driven luciferase in osteoblasts – cell-based, Clone20 osteoblasts, firefly luciferase, cherry-picked, dose response (AID 624132); format: functional;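 further: firefly luciferase luminescence from reporter carrying the Shn3 3'UTR in osteoblasts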
[9] = nonselective StAR promoter luciferase inhibitors – cell-based, luminescence, luciferase reporter, counter-screen for LRH-1 inverse agonist project, dose response (AID 651969); format: functional
cells [10] = format: functional
[11] = Vero E6 cell cytotoxicity, dose response, cytotoxicity control for non-replicating M. tuberculosis project, secondary assay (AID 492998); format: functional, VeroE6; details: Vero C1008
Steroidogenic factor 1 = Steroidogenic factor 1 (Homo sapiens, UniProt Q13285); experiment: Counterscreen for inverse agonists of the liver receptor homolog-1 (LRH-1; NR5A2): Luminescence-based cell-based high throughput dose response assay to identify inverse agonists of the Steroidogenic Factor 1 Nuclear Receptor (SF1; NR5A1).; format: functional
Sequence of Steroidogenic factor 1 (Q13285 whole entry): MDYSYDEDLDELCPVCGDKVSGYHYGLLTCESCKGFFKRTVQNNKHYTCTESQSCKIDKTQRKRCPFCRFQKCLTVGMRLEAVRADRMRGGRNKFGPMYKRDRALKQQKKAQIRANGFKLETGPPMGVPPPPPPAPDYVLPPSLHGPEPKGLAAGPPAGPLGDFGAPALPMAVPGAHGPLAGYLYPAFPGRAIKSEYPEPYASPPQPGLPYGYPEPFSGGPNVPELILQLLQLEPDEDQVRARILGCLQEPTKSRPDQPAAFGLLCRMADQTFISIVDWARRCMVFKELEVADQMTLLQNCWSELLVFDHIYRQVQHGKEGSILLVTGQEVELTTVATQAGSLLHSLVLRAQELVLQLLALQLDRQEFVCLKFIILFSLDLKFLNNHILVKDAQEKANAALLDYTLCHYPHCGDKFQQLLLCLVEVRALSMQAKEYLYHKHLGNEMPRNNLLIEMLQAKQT

[12] = THP-1 cell cytotoxicity, dose response, cytotoxicity control for non-replicating M. tuberculosis project (AID 489025); format: functional
[13] = molecular target: Nuclear receptor subfamily 5 group A member 2 (Homo sapiens, UniProt O00482); format: functional, cell-based;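 further: HEK293T cells transfected with LRH-1 and a StAR promoter luciferase reporter; potency for inhibitors that lower LRH-1 driven reporter light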
Sequence of Nuclear receptor subfamily 5 group A member 2 (O00482 whole entry): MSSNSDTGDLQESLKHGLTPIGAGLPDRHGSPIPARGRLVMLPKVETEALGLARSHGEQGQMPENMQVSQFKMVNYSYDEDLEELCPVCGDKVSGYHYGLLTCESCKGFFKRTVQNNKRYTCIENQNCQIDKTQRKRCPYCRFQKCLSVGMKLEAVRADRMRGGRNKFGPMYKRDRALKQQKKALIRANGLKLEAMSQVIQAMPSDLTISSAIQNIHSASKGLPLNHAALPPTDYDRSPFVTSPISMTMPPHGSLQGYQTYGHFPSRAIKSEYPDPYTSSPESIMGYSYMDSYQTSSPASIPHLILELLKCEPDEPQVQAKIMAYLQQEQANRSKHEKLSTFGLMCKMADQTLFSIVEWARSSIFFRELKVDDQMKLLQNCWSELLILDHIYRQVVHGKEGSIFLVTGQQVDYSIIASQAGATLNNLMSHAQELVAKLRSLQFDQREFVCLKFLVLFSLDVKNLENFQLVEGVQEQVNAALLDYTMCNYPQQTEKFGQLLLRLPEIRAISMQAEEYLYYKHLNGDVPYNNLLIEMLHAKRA

HEK293 [14] = experiment: cells; format: functional, cell-based; details: Homo sapiens
HEK293 [15] = experiment: inhibition of NOD1-driven NF-kB reporter – cell-based, luminescence, uHTS, primary screen (AID 1578); format: functional; details: Homo sapiens
HEK293 [16] = experiment: NOD2 signaling inhibitors in MDP-stimulated cells, cell-based, uHTS, luminescence (AID 2001); format: functional; details: Homo sapiens
HEK293 [17] = experiment: cells; format: functional, cell-based; details: Homo sapiens; remark: listed apart in the source
[18] = HEK-293T cell viability reduction – luminescence, B-cell screen hits, cytotoxicity control for BCR NF-kB inhibitor project, dose response (AID 489021); format: functional, cell-based;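 further: HEK-293T cells carrying an NF-kB luciferase reporter; cells exposed to compound for about 14 hours before viability readout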
[19] = molecular target: Nucleotide-binding oligomerization domain-containing protein 2 (Homo sapiens, UniProt Q9HC29); experiment: inhibition of NOD2-driven NF-kB reporter – cell-based, luminescence, uHTS, HEK293 (AID 1566); format: functional
Sequence of Nucleotide-binding oligomerization domain-containing protein 2 (Q9HC29 whole entry, the tested form may be a part): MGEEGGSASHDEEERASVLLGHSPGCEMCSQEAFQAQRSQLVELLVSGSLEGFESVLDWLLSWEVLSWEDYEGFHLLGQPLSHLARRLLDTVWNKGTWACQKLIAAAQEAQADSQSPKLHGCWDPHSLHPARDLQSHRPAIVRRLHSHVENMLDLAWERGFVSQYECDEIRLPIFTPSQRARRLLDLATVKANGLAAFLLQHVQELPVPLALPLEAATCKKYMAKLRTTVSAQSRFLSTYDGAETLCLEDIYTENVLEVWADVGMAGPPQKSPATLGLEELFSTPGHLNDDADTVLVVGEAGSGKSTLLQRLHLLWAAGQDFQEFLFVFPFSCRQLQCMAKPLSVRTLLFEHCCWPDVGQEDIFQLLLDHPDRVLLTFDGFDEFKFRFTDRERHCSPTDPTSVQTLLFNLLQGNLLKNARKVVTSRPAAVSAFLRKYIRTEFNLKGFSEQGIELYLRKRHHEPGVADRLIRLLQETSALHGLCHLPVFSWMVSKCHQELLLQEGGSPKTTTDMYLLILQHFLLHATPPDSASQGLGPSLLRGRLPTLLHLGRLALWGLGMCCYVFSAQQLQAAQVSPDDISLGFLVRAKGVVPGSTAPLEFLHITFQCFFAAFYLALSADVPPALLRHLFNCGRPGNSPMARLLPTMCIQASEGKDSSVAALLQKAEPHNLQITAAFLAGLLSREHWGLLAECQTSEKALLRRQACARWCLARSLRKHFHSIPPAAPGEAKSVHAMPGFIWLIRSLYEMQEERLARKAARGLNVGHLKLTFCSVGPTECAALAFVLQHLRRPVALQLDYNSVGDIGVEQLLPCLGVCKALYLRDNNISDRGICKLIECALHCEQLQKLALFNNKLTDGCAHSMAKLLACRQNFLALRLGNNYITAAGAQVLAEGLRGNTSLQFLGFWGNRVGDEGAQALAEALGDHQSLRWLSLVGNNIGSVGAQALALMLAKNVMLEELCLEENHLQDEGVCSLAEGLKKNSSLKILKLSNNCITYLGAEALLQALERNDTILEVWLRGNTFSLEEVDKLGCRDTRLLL

[20] = molecular target: Luciferin 4-monooxygenase (Photinus pyralis, UniProt P08659); experiment: inhibition of purified Photinus pyralis luciferase – biochemical, luminescence, dose response (AID 1891)
Sequence of Luciferin 4-monooxygenase (P08659 whole entry): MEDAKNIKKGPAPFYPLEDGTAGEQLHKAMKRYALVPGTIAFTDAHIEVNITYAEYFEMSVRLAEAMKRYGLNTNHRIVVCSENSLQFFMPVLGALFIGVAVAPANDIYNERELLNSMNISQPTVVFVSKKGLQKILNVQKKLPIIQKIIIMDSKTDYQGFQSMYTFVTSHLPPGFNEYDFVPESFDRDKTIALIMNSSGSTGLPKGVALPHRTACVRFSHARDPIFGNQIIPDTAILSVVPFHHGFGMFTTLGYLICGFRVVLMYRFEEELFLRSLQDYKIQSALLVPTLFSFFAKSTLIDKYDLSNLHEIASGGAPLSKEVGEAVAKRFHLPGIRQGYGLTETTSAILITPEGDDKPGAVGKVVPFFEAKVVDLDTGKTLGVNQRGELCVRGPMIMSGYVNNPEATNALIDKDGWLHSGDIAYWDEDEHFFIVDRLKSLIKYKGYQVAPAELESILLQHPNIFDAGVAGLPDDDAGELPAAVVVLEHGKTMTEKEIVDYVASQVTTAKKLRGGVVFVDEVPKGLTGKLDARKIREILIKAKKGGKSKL

[21] = Luminescence Cell-Based Dose Confirmation HTS to Identify Inhibitors of Platelet Dense Granule Release. [Related pubchem assays: 1663 (Primary HTS), 1678 (Summary of Project)]; format: functional
Phospholipase A2 = Phospholipase A2 (Homo sapiens, UniProt P04054); format: functional;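 further: confirmatory dose-response counterscreen on phospholipase A2, testing hits that came from an ultra-high-throughput screen for ATG4B inhibitors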
Sequence of Phospholipase A2 (P04054 whole entry): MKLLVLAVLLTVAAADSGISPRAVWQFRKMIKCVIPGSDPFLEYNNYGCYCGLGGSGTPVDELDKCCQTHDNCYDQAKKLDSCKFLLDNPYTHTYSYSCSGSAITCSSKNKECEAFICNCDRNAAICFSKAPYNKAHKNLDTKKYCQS

Cysteine protease ATG4B = molecular target: T2, Cysteine protease ATG4B (Homo sapiens, UniProt Q9Y4P1); format: functional;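 further: Fluorescence-based dose-response confirmation assay measuring inhibition of ATG4B activity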
T2 sequence (Q9Y4P1 whole entry): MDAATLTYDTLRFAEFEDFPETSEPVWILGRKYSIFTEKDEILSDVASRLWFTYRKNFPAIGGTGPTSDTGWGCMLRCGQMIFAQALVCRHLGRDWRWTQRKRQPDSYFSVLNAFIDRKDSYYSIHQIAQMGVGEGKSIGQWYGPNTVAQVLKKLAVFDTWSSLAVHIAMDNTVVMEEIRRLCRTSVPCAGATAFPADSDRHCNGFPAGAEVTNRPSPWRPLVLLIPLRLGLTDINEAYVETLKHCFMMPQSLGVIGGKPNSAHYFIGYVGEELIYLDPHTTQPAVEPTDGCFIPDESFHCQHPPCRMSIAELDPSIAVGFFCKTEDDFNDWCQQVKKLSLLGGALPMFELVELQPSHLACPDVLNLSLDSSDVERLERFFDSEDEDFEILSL

HEK293 [22] = experiment: cells; format: functional, cell-based; details: Homo sapiens; remark: listed apart in the source

For `COc1ccc(NC2=Nc3ccccc3CC2)cc1`, the AC50 (HeLa) was > 350 µM (inactive).

With `CC(C)C(=O)NC(c1cccc([N+](=O)[O-])c1)c1ccc2cccnc2c1O` (centres undefined) the AC50 [1] was 2.7 µM (active), the IC50 (Exodeoxyribonuclease V) was > 119 µM (inactive) and the EC50 (cells [2]) was 6.78 µM (active). For the same compound, the AC50 [3] was 2.17 µM (active), the EC50 (cells [4]) was > 350 µM (not active) and the AC50 (HEK293 [5]) was 6.46 µM (active). The IC50 [6] was > 119 µM (inactive), the AC50 [7] was 0.924 µM (active) and the AC50 [8] was 2.57 µM (active).

For `Cc1onc(-c2ccccc2)c1C(=O)ON=C(N)c1ccc([N+](=O)[O-])o1`, the IC50 [9] was 35.9 µM (inactive), the IC50 (cells [10]) was 6.29 µM (active) and the IC50 (Exodeoxyribonuclease V) was > 119 µM (inactive). For the same compound, the CC50 [11] was > 20 µM (active), the IC50 (Steroidogenic factor 1) was 2.03 µM (active) and the IC50 [6] was 69.7 µM (inactive). For the same compound, the CC50 [12] was > 40 µM (active) and the IC50 [13] was 11.1 µM (inactive).

For `O=C(CCCN1C(=O)/C(=C/c2ccccc2Cl)SC1=S)NNC(=O)c1ccccc1`, the IC50 (HEK293 [14]) was > 20 µM (inactive), the EC50 (HEK293 [15]) was > 20 µM (inactive) and the IC50 (HEK293 [16]) was 3.04 µM (active). For the same compound, the IC50 (HEK293 [17]) was 3.13 µM (active), the IC50 [18] was > 80 µM (inactive) and the EC50 [19] was > 20 µM (inactive). The EC50 [20] was > 112 µM (not active), the EC50 [21] was > 112 µM (not active) and the IC50 (Phospholipase A2) was 5.28 µM (active). For the same compound, the IC50 (Cysteine protease ATG4B) was 16.6 µM (active) and the IC50 (HEK293 [22]) was > 20 µM (inactive).
